Columns and labels:
BTK wildtype protein = BTK wildtype protein (Homo sapiens (Human), UniProt Q06187); assay: BTK wildtype HTRF displacement assay; assay type: binding; conditions: 1-hour incubation; read-out: BTK (wt) IC50
Procedure: (§1) The ability of a compound to bind BTK wildtype or BTK C481S proteins was measured using an HTRF displacement assay. The assay measures the ability of a compound to displace a tracer ligand bound to the active site of BTK wildtype or BTK C481 S proteins.
(§2) Test compounds were prepared as 10 mM stock solutions in DMSO (Fisher cat #BP231-100). Compounds to be assayed were dispensed using an Echo 650 acoustic dispenser (Beckman Coulter) on a 384 well plate in 6 doses applying four-fold dilutions from the highest concentration of 5 μM. N-terminal GST-tagged recombinant full-length BTK wildtype protein and BTK C481 S protein 2-659 were purchased from Carna Biosciences, Inc (Kobe, Japan). BTK wildtype or BTK C481S protein was separately incubated with compound in assay buffer containing kinase tracer 239 (Thermo Fisher) and Mab anti GST-Th (PerkinElmer). After a 1-hour incubation at room temperature, the HTRF signal was measured using SPARK plate reader (Tecan) using the TR fluorescence mode. The HTRF ratio is calculated for DMSO, no protein control and compound samples using the following equation: HTRF ratio=Emmision665/Emmision620×10^4. The signal for the no protein control samples was used to subtract background noise from the DMSO and compound samples. Background subtracted HTRF ratios are used to calculate the percent inhibition, where DMSO controls are set to 0 percent inhibition. The percent inhibition is plotted as a function of compound concentration and IC50 values were calculated from a four-parameter logistic fit in Prism v9.4 (GraphPad), where the bottom and top are constrained to 0 and 100, respectively.

BTK C481S protein = BTK C481S protein (Homo sapiens (Human), UniProt Q06187, C481S); assay: BTK C481S HTRF displacement assay; assay type: binding; conditions: 1-hour incubation
Procedure: as §1, §2
The same assay was used to measure the activity of selected compounds of the formula TBM-L-hydrogen. Using the IC50 value observed for a given reversible test compound, the KI of the test compound can be assessed using the formula KI=IC50/(1+([Tracer]/Kd)), wherein the tracer concentration in the assay [Tracer] is 50 nM and the tracer Kd for BTK C481S is 54 nM.

BTK C481S protein, sequence (Q06187 2-659 C481S): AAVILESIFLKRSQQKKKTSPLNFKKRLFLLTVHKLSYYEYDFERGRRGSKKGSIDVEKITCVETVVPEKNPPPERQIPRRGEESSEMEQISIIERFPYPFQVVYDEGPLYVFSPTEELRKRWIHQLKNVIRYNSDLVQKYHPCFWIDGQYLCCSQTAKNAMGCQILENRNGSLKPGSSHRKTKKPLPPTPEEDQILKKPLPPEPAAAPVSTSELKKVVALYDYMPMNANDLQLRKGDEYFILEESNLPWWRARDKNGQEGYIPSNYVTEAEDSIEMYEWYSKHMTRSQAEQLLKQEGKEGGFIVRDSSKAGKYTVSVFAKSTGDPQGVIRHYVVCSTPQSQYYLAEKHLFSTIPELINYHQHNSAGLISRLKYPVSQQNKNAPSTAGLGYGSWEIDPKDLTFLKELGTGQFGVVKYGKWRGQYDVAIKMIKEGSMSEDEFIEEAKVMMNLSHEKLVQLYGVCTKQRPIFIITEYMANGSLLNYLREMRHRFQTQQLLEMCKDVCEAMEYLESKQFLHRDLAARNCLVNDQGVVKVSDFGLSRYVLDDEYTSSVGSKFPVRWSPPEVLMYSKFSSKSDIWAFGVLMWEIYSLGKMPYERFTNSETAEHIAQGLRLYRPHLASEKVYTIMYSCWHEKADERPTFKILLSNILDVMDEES
BTK wildtype protein, sequence (Q06187 2-659): as the sequence (Q06187 2-659 C481S) above, with S480C counted along it

SMILES | IC50 (BTK wildtype protein) | IC50 (BTK C481S protein)
COc1ccc(F)cc1C(=O)NCc1ccc(-c2nn([C@H]3CC[C@H](N(C)C(=O)n4cncn4)C3)c3ncnc(N)c23)cc1 [Compound 312, N-((1S,3S)-3-(4-amino-3-(4-((5-fluoro-2-methoxybenzamido)methyl)phenyl)-1H-pyrazolo [3,4-d]pyrimidin-1-yl)cyclopentyl)-N-methyl-1H-1,2,4-triazole-1-carboxamide] | ≤ 1 µM | ≤ 1 µM
CN(C(=O)n1cncn1)C1CCC(C2CCNc3c(C(N)=O)c(-c4ccc(Oc5ccccc5)cc4)nn32)CC1 (centres unmarked) [Compound 196, 7-(4-(N-methyl-1H-1,2,4-triazole-1-carboxamido)cyclohexyl)-2-(4-phenoxyphenyl)-4,5,6,7-tetrahydropyrazolo[1,5-a] pyrimidine-3-carboxamide] | ≤ 1 µM | ≤ 1 µM
COc1ccc(F)cc1C(=O)NCc1ccc(-c2nn(C(CN(C)C(=O)n3cncn3)c3ccccc3)c3ncnc(N)c23)cc1 (centres unmarked) [Compound 243, N-(2-(4-amino-3-(4-((5-fluoro-2-methoxybenzamido)methyl)phenyl)-1H-pyrazolo[3,4-d]pyrimidin-1-yl)-2-phenylethyl)-N-methl-1H-1,2,4-triazole-1-carboxamide] | > 1 µM | > 1 µM
NC(=O)c1c(-c2ccc(Oc3ccccc3)cc2)nn(C2CCCC3C2CCN3C(=O)n2cncn2)c1N (centres unmarked) [Compound 197, 1-(1-(1H-1,2,4-triazole-1-carbonyl)octahydro-1H-indol-4-yl)-5-amino-3-(4-phenoxy-phenyl)-1H-pyrazole-4-carboxamide] | ≤ 1 µM | ≤ 1 µM
COc1ccc(F)cc1C(=O)NCc1ccc(-c2nn(CC3CCCCCN3C(=O)n3cncn3)c3ncnc(N)c23)cc1 (centres unmarked) [Compound 174, N-(4-(1-((1-(1H-1,2,4-triazole-1-carbonyl)azepan-2-yl)methyl)-4-amino-1H-pyrazolo[3,4-d]pyrimidin-3-yl)benzyl)-5-fluoro-2-methoxybenzamide] | > 1 µM | > 1 µM
COc1ccc(F)cc1C(=O)NCc1ccc(-c2nn(C[C@H]3CCCC[C@@H]3CN(C)C(=O)n3cncn3)c3ncnc(N)c23)cc1 [Compound 193, N-(((1S,2S)-2-((4-amino-3-(4-((5-fluoro-2-methoxybenzamido)methyl)phenyl)-1H-pyrazolo [3,4-d]pyrimidin-1-yl)methyl)cyclohexyl)methyl)-N-methyl-1H-1,2,4-triazole-1-carboxamide] | ≤ 1 µM | ≤ 1 µM
CNc1c(C(N)=O)c(-c2ccc(Oc3ccccc3)cc2)nn1C[C@@H]1CCCCN1C(=O)n1cncn1 [Compound 238, (S)-1-((1-(1H-1,2,4-triazole-1-carbonyl)piperidin-2-yl)methyl)-5-(methylamino)-3-(4-phenoxyphenyl)-1H-pyrazole-4-carboxamide] | ≤ 1 µM | > 1 µM
COc1nn(C)cc1Nc1nc(N2CCCC(N(C)C(=O)n3cncn3)C2)nc2c1ncn2C (centres unmarked) [Compound 300, N-(1-(6-((3-methoxy-1-methyl-1H-pyrazol-4-yl)amino)-9-methyl-9H-purin-2-yl)piperidin-3-yl)-N-methyl-1H-1,2,4-triazole-1-carboxamide] | > 1 µM | ≤ 1 µM
COc1ccc(F)cc1C(=O)NCc1ccc(-c2nn(C(CC3CCCCC3)CN(C)C(=O)n3cncn3)c3ncnc(N)c23)cc1 (centres unmarked) [Compound 202, N-(2-(4-amino-3-(4-((5-fluoro-2-methoxybenzamido)methyl)phenyl)-1H-pyrazolo[3,4-d]pyrimidin-1-yl)-3-cyclohexylpropyl)-N-methyl-1H-1,2,4-triazole-1-carboxamide] | > 1 µM | > 1 µM
NC(=O)c1c(-c2ccc(Oc3ccccc3)cc2)nn2c1NCCC2C1CCN(C(=O)n2cncn2)C1 (centres unmarked) [Compound 282, 7-(1-(1H-1,2,4-triazole-1-carbonyl)pyrrolidin-3-yl)-2-(4-phenoxyphenyl)-4,5,6,7-tetrahydropyrazolo[1,5-a] pyrimidine-3-carboxamide] | ≤ 1 µM | ≤ 1 µM
Cc1[nH]c2c(C(N)=O)cc(F)c(N3CCC4(CC3)CCN4C(=O)n3cncn3)c2c1C [Compound 142, 4-(1-(1H-1,2,4-triazole-1-carbonyl)-1,7-diazaspiro[3.5]nonan-7-yl)-5-fluoro-2,3-dimethyl-1H-indole-7-carboxamide] | ≤ 1 µM | ≤ 1 µM
NC(=O)c1nn2c(C3CCCCN3C(=O)n3cncn3)ccnc2c1-c1ccc(Oc2ccccc2)cc1 (centres unmarked) [Compound 277, 7-(1-(1H-1,2,4-triazole-1-carbonyl)piperidin-2-yl)-3-(4-phenoxy-phenyl)pyrazolo[1,5-a]pyrimidine-2-carboxamide] | > 1 µM | > 1 µM
Cc1[nH]c2c(C(N)=O)cc(F)c(N3CCCC4(CCN4C(=O)n4cncn4)C3)c2c1C (centres unmarked) [Compound 171, 4-(1-(1H-1,2,4-triazole-1-carbonyl)-1,6-diazaspiro[3.5]nonan-6-yl)-5-fluoro-2,3-dimethyl-1H-indole-7-carboxamide] | ≤ 1 µM | ≤ 1 µM
COc1ccc(F)cc1C(=O)NCc1ccc(-c2nn([C@@H]3CCC[C@H](N(C)C(=O)n4cncn4)C3)c(N)c2C(N)=O)cc1 (relative stereo) [Compound 284, N-((1S,3R)-3-(5-amino-4-carbamoyl-3-(4-((5-fluoro-2-methoxy-benzamido)methyl)phenyl)-1H-pyrazol-1-yl)cyclohexyl)-N-methyl-1H-1,2,4-triazole-1-carboxamide] | ≤ 1 µM | ≤ 1 µM
COc1ccc(F)cc1C(=O)NCc1ccc(-c2nn(C[C@H](C3CC3)N(C)C(=O)n3cncn3)c3ncnc(N)c23)cc1 [Compound 132, (S)-N-(2-(4-amino-3-(4-((5-fluoro-2-methoxybenzamido)methyl)phenyl)-1H-pyrazolo[3,4-d]pyrimidin-1-yl)-1-cyclopropylethyl)-N-methyl-1H-1,2,4-triazole-1-carboxamide] | > 1 µM | > 1 µM
CN(C(=O)n1cncn1)[C@@H]1CCC[C@H](n2nc(-c3ccc(Oc4ccccc4)cc3)c(C(N)=O)c2N)C1 [Compound 297, N-((1R,3S)-3-(5-amino-4-carbamoyl-3-(4-phenoxyphenyl)-1H-pyrazol-1-yl)cyclohexyl)-N-methyl-1H-1,2,4-triazole-1-carboxamide] | ≤ 1 µM | ≤ 1 µM
COc1ccc(F)cc1C(=O)NCc1ccc(-c2nn(CC3CN(C)CCN3C(=O)n3cncn3)c3ncnc(N)c23)cc1 (centres unmarked) [Compound 178, N-(4-(4-amino-1-((4-methyl-1-(1H-1,2,4-triazole-1-carbonyl)piperazin-2-yl)methyl)-1H-pyrazolo[3,4-d]pyrimidin-3-yl)benzyl)-5-fluoro-2-methoxybenzamide] | > 1 µM | > 1 µM
COc1ccc(F)cc1C(=O)NCc1ccc(-c2nn(-c3ccccc3CN(C)C(=O)n3cncn3)c3ncnc(N)c23)cc1 [Compound 143, N-(2-(4-amino-3-(4-((5-fluoro-2-methoxybenzamido)methyl)phenyl)-1H-pyrazolo[3,4-d]pyrimidin-1-yl)benzyl)-N-methyl-1H-1,2,4-triazole-1-carboxamide] | > 1 µM | > 1 µM
COc1ccc(F)cc1C(=O)NCc1ccc(-c2nn(C[C@H]3CCN3C(=O)n3cncn3)c3ncnc(N)c23)cc1 [Compound 108, (R)-N-(4-(1-((1-(1H-1,2,4-triazole-1-carbonyl)azetidin-2-yl)methyl)-4-amino-1H-pyrazolo[3,4-d]pyrimidin-3-yl)benzyl)-5-fluoro-2-methoxybenzamide] | ≤ 1 µM | ≤ 1 µM
CCN(C(=O)n1cncn1)C1CCC(n2nc(-c3ccc(Oc4ccccc4)cc3)c3c(N)ncnc32)C1 (centres unmarked) [Compound 179, N-(3-(4-amino-3-(4-phenoxyphenyl)-1H-pyrazolo[3,4-d]pyrimidin-1-yl)cyclopentyl)-N-ethyl-1H-1,2,4-triazole-1-carboxamide] | ≤ 1 µM | ≤ 1 µM
COc1ccc(F)cc1C(=O)NCc1ccc(-c2nn([C@H]3CCCC[C@@H](N(C)C(=O)n4cncn4)C3)c(N)c2C(N)=O)cc1 [Compound 222, N-((1R,3S)-3-(5-amino-4-carbamoyl-3-(4-((5-fluoro-2-methoxybenzamido)methyl)phenyl)-1H-pyrazol-1-yl)cycloheptyl)-N-methyl-1H-1,2,4-triazole-1-carboxamide] | ≤ 1 µM | ≤ 1 µM
COC[C@H](C1CCNc2c(C(N)=O)c(-c3ccc(Oc4ccccc4)cc3)nn21)N(C)C(=O)n1cncn1 (stereo partly drawn) [Compound 156, 7-((S)-2-methoxy-1-(N-methyl-1H-1,2,4-triazole-1-carboxamido)ethyl)-2-(4-phenoxyphenyl)-4,5,6,7-tetrahydropyrazolo[1,5-a] pyrimidine-3-carboxamide] | > 1 µM | > 1 µM

Reference: patent US20240294531A1, “COVALENT HETEROCYCLES AND USES THEREOF” (Kumquat Biosciences Inc., priority 2022, published 2024)
